Data reported in PubChem BioAssay (NCI).
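How tested: cells in 96-well plates exposed to compound for 48 hours at five concentrations. TGI: total growth inhibition.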

Columns and labels:
Test in all cases: DTP human tumour cell line panel, 48 h
[1] = test system: SF-268 CNS
[2] = test system: RXF 393 renal
[3] = test system: COLO 205 colon
[4] = test system: SNB-75 CNS
[5] = test system: 786-0 renal
[6] = test system: K-562 leukemia
[7] = test system: CCRF-CEM leukemia
[8] = test system: NCI-H23 lung
[9] = test system: MCF7 breast
[10] = test system: NCI/ADR-RES ovarian
[11] = test system: U251 CNS
[12] = test system: BT-549 breast
[13] = test system: HCT-116 colon
[14] = test system: OVCAR-5 ovarian
[15] = test system: HS 578T breast
[16] = test system: UO-31 renal
[17] = test system: SR leukemia
[18] = test system: UACC-257 melanoma
[19] = test system: MALME-3M melanoma
[20] = test system: T-47D breast
[21] = test system: OVCAR-3 ovarian
[22] = test system: PC-3 prostate
[23] = test system: SF-539 CNS
[24] = test system: EKVX NSCLC
[25] = test system: HOP-92 NSCLC
[26] = test system: SK-OV-3 ovarian
[27] = test system: KM12 colon
[28] = test system: TK-10 renal
[29] = test system: A549 NSCLC
[30] = test system: CAKI-1 renal
[31] = test system: SK-MEL-5 melanoma
[32] = test system: HT29 colon
[33] = test system: SK-MEL-28 melanoma
[34] = test system: RPMI-8226 leukemia
[35] = test system: HCC-2998 colon
[36] = test system: HCT-15 colon
[37] = test system: OVCAR-4 ovarian
[38] = test system: OVCAR-8 ovarian
[39] = test system: NCI-H460 lung
[40] = test system: SN12C renal
[41] = test system: ACHN renal
[42] = test system: MDA-MB-231 breast
[43] = test system: MDA-MB-435
[44] = test system: UACC-62 melanoma
[45] = test system: LOX IMVI melanoma
[46] = test system: HOP-62 NSCLC
[47] = test system: IGROV1 ovarian
[48] = test system: NCI-H522 lung
[49] = test system: NCI-H226 lung
[50] = test system: A498 renal
[51] = test system: SF-295 CNS
[52] = test system: HL-60(TB) leukemia
[53] = test system: MDA-N
[54] = test system: DU-145 prostate
[55] = test system: M14 melanoma
[56] = test system: SK-MEL-2 melanoma
[57] = test system: SNB-19 CNS
[58] = test system: SW-620 colon
[59] = test system: MOLT-4 leukemia

Measured: TGI

COc1cc(Oc2nc3ccc(C(F)(F)F)cc3nc2-c2ccccc2)cc(OC)c1OC
44.9 µM: [31]
33.4 µM: [26]
23.5 µM: [4]
28.2 µM: [51]
56 µM: [12]
12.7 µM: [5]
40.6 µM: [41]
44.4 µM: [46]
28.5 µM: [11]
31.4 µM: [13]
45.7 µM: [2] | [25]
69.2 µM: [28]
26.3 µM: [37]
60.8 µM: [23]
17.3 µM: [30]
49.7 µM: [29]
95.2 µM: [1]
97.1 µM: [21]
31.7 µM: [44]
not listed: [55] | [56] | [57] | [58] | [59]
> 100 µM: all other assays above

CC1(C)CC(=O)c2c(nc3c4c([nH]c(-c5ccc(Br)cc5)c24)CC(C)(C)C3)C1
65.3 µM: [2]
54.2 µM: [3]
86.7 µM: [50]
91 µM: [5]
59.1 µM: [17]
not listed: [34] | [47]
> 100 µM: all other assays above

CC(C)(C)NC(=O)CCC1C(C(=O)NC(C)(C)C)C2(Cl)C(Cl)=C(Cl)C1(Cl)C2(Cl)Cl (stereo unspecified)
not listed: [25] | [30]
> 100 µM: all other assays above

CC1CC(C#N)=C2NCCN2C1=O (stereo unspecified)
31.8 µM: [53]
50.1 µM: [43]
33.5 µM: [55]
28.5 µM: [31]
37.4 µM: [3]
50.7 µM: [9]
not listed: [13] | [14] | [25] | [41] | [44] | [50]
> 100 µM: all other assays above
